Measurements reported in patent US7407775B2, “Method for identifying Listeria monocytogenes and culture medium” (Biomerieux S.A., priority 2000, dated 2008).

Legend:
Assay type in all cases: cell-based
[1] = tested on: Listeria monocytogenes 092; experiment: Experiment 2: octanoate esterase substrates with different Indoxyl-based chromogenic markers; set-up: key to I (intensity of the color): —: the symbol “-” corresponds to the absence of color or intensity; 0 corresponds to no activity; 0.1 corresponds to a trace of color; 0.5 corresponds to very pale coloration; 1 corresponds to clear but low-intensity coloration; 1.5 corresponds to a degree of coloration intermediate between scores 1 and 2; 2 corresponds to clear coloration of moderate intensity; 2.5 corresponds to a degree of coloration intermediate between scores 2 and 3; 3 corresponds to intense coloration; 3.5 corresponds to a degree of coloration intermediate between scores 3 and 4; 4 corresponds to very intense coloration; conditions: 37° C., substrate 250 mg/l
Procedure: (§1) In Table 1 above, as in the following Tables, C represents the color of the colonies after incubation, I represents the intensity of the color, and the symbol “-” corresponds to the absence of color or intensity; finally, IT defines the incubation time. It should be noted that the intensity of the color is scored on an arbitrary scale but one which is consistent for all the biological specimens and media tested. This scale is valid for this experiment as well as all those that follow. It can be defined in the following way: • 0 corresponds to no activity, • 0.1 corresponds to a trace of color, • 0.5 corresponds to very pale coloration, • 1 corresponds to clear but low-intensity coloration, • 1.5 corresponds to a degree of coloration intermediate between scores 1 and 2, • 2 corresponds to clear coloration of moderate intensity, • 2.5 corresponds to a degree of coloration intermediate between scores 2 and 3, • 3 corresponds to intense coloration, • 3.5 corresponds to a degree of coloration intermediate between scores 3 and 4, • 4 corresponds to very intense coloration.
(§2) A stock solution of each substrate at a concentration of 40 g/l was made up in a mixture of 40% Dimethylsulfoxide and 60% Tween 20. An appropriate volume was added to four Columbia-type media while cooling to give a final substrate concentration of 250 mg/l. These dishes were divided into three areas and then each area was inoculated with a suspension (density=0.5 McFarland) of microorganisms taken from either the Applicant's own collection or the ATCC. The dishes were incubated for 48 hours at 37° C. The colonies which grew were examined by eye after 24 and 48 hours of incubation. Both the color and the intensity of the color of the colonies were recorded.

[2] = tested on: Listeria monocytogenes ATCC 19115; experiment: as above; set-up: key to I (intensity of the color): —: the symbol “-” corresponds to the absence of color or intensity; 0 corresponds to no activity; 0.1 corresponds to a trace of color; 0.5 corresponds to very pale coloration; 1 corresponds to clear but low-intensity coloration; 1.5 corresponds to a degree of coloration intermediate between scores 1 and 2; 2 corresponds to clear coloration of moderate intensity; 2.5 corresponds to a degree of coloration intermediate between scores 2 and 3; 3 corresponds to intense coloration; 3.5 corresponds to a degree of coloration intermediate between scores 3 and 4; 4 corresponds to very intense coloration; conditions: 37° C., substrate 250 mg/l
Procedure: as §1, §2

[3] = tested on: Listeria monocytogenes ATCC 19117; experiment: as above; set-up: key to I (intensity of the color): —: the symbol “-” corresponds to the absence of color or intensity; 0 corresponds to no activity; 0.1 corresponds to a trace of color; 0.5 corresponds to very pale coloration; 1 corresponds to clear but low-intensity coloration; 1.5 corresponds to a degree of coloration intermediate between scores 1 and 2; 2 corresponds to clear coloration of moderate intensity; 2.5 corresponds to a degree of coloration intermediate between scores 2 and 3; 3 corresponds to intense coloration; 3.5 corresponds to a degree of coloration intermediate between scores 3 and 4; 4 corresponds to very intense coloration; conditions: 37° C., substrate 250 mg/l
Procedure: as §1, §2

Listeria ivanovii 018 = experiment: Experiment 3: detecting an esterase activity in liquid medium (API-type strips); set-up: key: —: the symbol “-” corresponds to the absence of color or intensity; 0 corresponds to no activity; 0.1 corresponds to a trace of color; 0.5 corresponds to very pale coloration; 1 corresponds to clear but low-intensity coloration; 1.5 corresponds to a degree of coloration intermediate between scores 1 and 2; 2 corresponds to clear coloration of moderate intensity; 2.5 corresponds to a degree of coloration intermediate between scores 2 and 3; 3 corresponds to intense coloration; 3.5 corresponds to a degree of coloration intermediate between scores 3 and 4; 4 corresponds to very intense coloration; conditions: 37° C.
Procedure: as §1
(§3) These substrates were lyophilized in the wells of API-type strips (Registered Trademark). Before use, the substrates contained in the wells were resuspended in an agar-free Columbia-type inoculation medium. These wells were then inoculated with a suspension (density=2 McFarland) of microorganisms taken from either the Applicant's own collection or the ATCC. The strips were incubated for 8 hours at 37° C. The colonies which grew were examined by eye after 4, 6 and 8 hours of incubation.
(§4) The intensity of the color of the colonies was recorded.

[4] = tested on: Listeria monocytogenes 092; experiment: as above; set-up: key: —: the symbol “-” corresponds to the absence of color or intensity; 0 corresponds to no activity; 0.1 corresponds to a trace of color; 0.5 corresponds to very pale coloration; 1 corresponds to clear but low-intensity coloration; 1.5 corresponds to a degree of coloration intermediate between scores 1 and 2; 2 corresponds to clear coloration of moderate intensity; 2.5 corresponds to a degree of coloration intermediate between scores 2 and 3; 3 corresponds to intense coloration; 3.5 corresponds to a degree of coloration intermediate between scores 3 and 4; 4 corresponds to very intense coloration; conditions: 37° C.
Procedure: as §1, §3, §4

Listeria seeligeri 011 = experiment: as above; set-up: key: —: the symbol “-” corresponds to the absence of color or intensity; 0 corresponds to no activity; 0.1 corresponds to a trace of color; 0.5 corresponds to very pale coloration; 1 corresponds to clear but low-intensity coloration; 1.5 corresponds to a degree of coloration intermediate between scores 1 and 2; 2 corresponds to clear coloration of moderate intensity; 2.5 corresponds to a degree of coloration intermediate between scores 2 and 3; 3 corresponds to intense coloration; 3.5 corresponds to a degree of coloration intermediate between scores 3 and 4; 4 corresponds to very intense coloration; conditions: 37° C.
Procedure: as §1, §3, §4

| SMILES | C (color of the colonies) ([1]; IT 24 h) | I (intensity of the color) ([1]; IT 24 h) | C (color of the colonies) ([1]; IT 48 h) | I (intensity of the color) ([1]; IT 48 h) | C (color of the colonies) ([2]; IT 24 h) | I (intensity of the color) ([2]; IT 24 h) | C (color of the colonies) ([2]; IT 48 h) | I (intensity of the color) ([2]; IT 48 h) | C (color of the colonies) ([3]; IT 24 h) | I (intensity of the color) ([3]; IT 24 h) | C (color of the colonies) ([3]; IT 48 h) | I (intensity of the color) ([3]; IT 48 h) | I (intensity of the color) (Listeria ivanovii 018; IT 4 h) | I (intensity of the color) (Listeria ivanovii 018; IT 6 h) | I (intensity of the color) (Listeria ivanovii 018; IT 8 h) | I (intensity of the color) ([4]; IT 4 h) | I (intensity of the color) ([4]; IT 6 h) | I (intensity of the color) ([4]; IT 8 h) | I (intensity of the color) (Listeria seeligeri 011; IT 4 h) | I (intensity of the color) (Listeria seeligeri 011; IT 6 h) | further results |
| --- | --- | --- | --- | --- | --- | --- | --- | --- | --- | --- | --- | --- | --- | --- | --- | --- | --- | --- | --- | --- | --- |
| CCCCCCCC(=O)Oc1c[nH]c2ccc(Br)cc12 [Blue-C8, 5-Bromo-3-indolyl octanoate] | gray | 1.5 | gray | 2.5 | gray | 1 | gray | 2 | gray | 1 | gray | 2 |  |  |  |  |  |  |  |  |  |
| CCCCCCCC(=O)Oc1c[nH]c2cc(Cl)c(Br)cc12 [Magenta-C8, 5-Bromo-6-chloro-3-indolyl octanoate] | purple | 3 | purple | 3 | purple | 2 | purple | 3 | purple | 1.5 | purple | 3.5 | — | — | — | — | — | 0.5 | — | — | I (intensity of the color) (Listeria seeligeri 011; IT 8 h): — |
| CCCCCCCC(=O)Oc1c[nH]c2cc(Cl)ccc12 [Pink-C8, 6-Chloro-3-indolyl octanoate] | pink | 1.5 | pink | 2 | pink | 0.5 | pink | 1 | pink | 0.5 | pink | 1 | — | — | — | — | — | — | — | — | I (intensity of the color) (Listeria seeligeri 011; IT 8 h): — |
| CCCCCCCC(=O)Oc1c[nH]c2ccc(Br)c(Cl)c12 [X-C8, 5-Bromo-4-chloro-3-indolyl octanoate] | turquoise | 3 | turquoise | 3.5 | turquoise | 2.5 | turquoise | 3 | turquoise | 2 | turquoise | 3 | — | — | — | — | 1 | 1.5 | — | 0.5 | I (intensity of the color) (Listeria seeligeri 011; IT 8 h): 0.5 |
